Laboratory results taken from US10928381B2, “In vitro methods of monitoring autophagy in a human cell using a photoconvertable fluorescent protein linked biomarker” (The Regents of the University of Michigan, priority 2018, dated 2021).

How the values were obtained:
[1] = system: Dendra2-LC3 HEK cells; assay: Optical pulse labeling: time-dependent decay of photoconverted (red, RFP/TRITC) Dendra2-LC3 as measure of autophagic flux; format: cell-based, human; design: key to Hit class in screen of Enzo Autophagy compound library (9H RFP/0H RFP): enhancer: [Sample9H RFP/OH RFP]<[DMSO9H RFP/OH RFP−3SDDMSO]; inhibitor: [Sample9H RFP/OH RFP]>[DMSO9H RFP/OH RFP 3SDDMSO]; details: for Hit class in screen of Enzo Autophagy compound library (9H RFP/0H RFP): 10 uM, 9 hours after drug addition; for Phase II result, Dendra2-LC3 degradation kinetics: in comparison to DMSO
Description: FIGS. 8A-E. Time dependent decay of Dendra2-LC3 as an assay of autophagic flux. (FIG. 8A) Dendra2-LC3 reporter cells were imaged prior to photoconversion to measure background TRITC intensity. Immediately following photoconversion with a 5 second pulse of […] light, cells were treated with DMSO, 1 uM Torin1, or 10 nM Bafilomycin-A1 and then were subsequently imaged at the indicated time points. Images are psuedocolored to better highlight intensity differences. (FIGS. 8B-E) Time dependent changes in photoconverted Dendra2-LC3 fluorescence in the TRITC (FIGS. 8B, D) and GFP (FIGS. 8C, E) channels. Gray boxes represent the pre and post-photoconversion time points. TRITC intensity values are normalized, setting the background intensity prior to conversion to 0 and the post-conversion value to 1. GFP values are normalized to the pre-conversion intensity. Error bars represent the SEM from three replicate experiments. […] (FIG. 8C) Following photoconversion there is a 40% drop in GFP intensity. As new Dendra2-LC3 is synthesized, GFP levels return to pre-photoconversion levels over the span of 13.5 hours. […] Cells were transfected with 20 nM ATG5 siRNA two days prior to imaging.
FIG. 9A-C. Evaluating the efficacy of known autophagy modulators. (FIG. 9A) An unbiased screen of the Enzo Autophagy compound library identified several known autophagy compounds as hits providing construct validity to the assay. Rapamycin, NVP-BEZ235 and AKT inhibitor X, were among the compounds appropriately identified as enhancers while Bafilomycin registered as an inhibitor. […] Cells were imaged in RFP to measure background fluorescence, then photoconverted with a 4 second DAPI exposure and immediately imaged again to establish the postconversion intensity. Drugs from the Enzo Autophagy library were added at a concentration of 10 uM via a robotic liquid handler. 9 hours later the cells were imaged again in order to assess the efficacy of the drugs. Hits were defined as follows: enhancer: [Sample9H RFP/OH RFP]<[DMSO9H RFP/OH RFP−3SDDMSO], inhibitor: [Sample9H RFP/OH RFP]>[DMSO9H RFP/OH RFP 3SDDMSO]. […] Imaging of the compound library was repeated in GFP. Intensity values are reported 15 hours after drug treatment. (FIG. 9C) The reduction in Dendra2-LC3 half-life observed upon treatment of autophagic flux enhancers is attenuated with partial knockdown of ATG5. Cells were transfected with 20 nM ATG5 siRNA 2 days prior to imaging. Error bars represent SEM from three replicate experiments.
Experiments were conducted during development of embodiments herein to develop a sensitive method—optical pulse labeling (OPL)—that takes advantage of the photoconvertible fluorescent protein Dendra2 for estimations of autophagic flux in cellulo (Refs 14, 34; herein incorporated by reference in their entireties) (FIG. 1b). […] Dendra2 was fused to LC3, a specific marker of autophagosomes and itself an autophagy substrate (Refs. 27, 31; herein incorporated by reference in their entireties). Following photoconversion, the time-dependent reduction in red LC3-Dendra2 (FIG. 1c) is used to calculate protein half-life, representing an estimate of autophagy flux for individual cells (Refs. 14, 34; herein incorporated by reference in their entireties) Furthermore, because LC3 is degraded as autophagosomes mature, the return to steady-state levels of green Dendra2-LC3 after photoconversion (FIG. 1d) reflects activity within the pathway as a whole. The assay is noninvasive, permitting longitudinal analyses of autophagy kinetics in living cells, and amenable to HTS.
For these studies the potent mTOR inhibitor torin1 (Ref. 36; herein incorporated by reference in its entirety) was selected as a positive control for autophagy induction, and the vacuolar ATPase inhibitor bafilomycin-A1 (Ref. 37; herein incorporated by reference in its entirety) as a positive control for autophagy inhibition. In each case, DMSO served as a vehicle (negative) control. […]

[2] = system: Dendra2-LC3 HEK cells; assay: Native (green, GFP) Dendra2-LC3 intensity and puncta, phase I primary screen readout (T15/T0); format: cell-based, human; details: for Phase I result, normalized GFP intensity (T15/T0): 15 h
Text: Conventional methods for estimating autophagy flux rely upon the assessment of LC3 or other autophagy substrates by Western blotting or immunocytochemistry (Ref. 27; herein incorporated by reference in its entirety); by their very nature, these techniques are static and limited to dead cells. Fluorescence-based methods that use tagged substrates allow visualization of autophagy within living cells, but typically require the overexpression of autophagy target proteins that may disrupt the very process they are intended to measure. To assess autophagy in human cells without compromising or interfering with the pathway, experiments were conducted during development of embodiments herein utilizing CRISPR/Cas9 genome editing (Refs. 29-30; herein incorporated by reference in their entireties) to insert the Dendra2 open reading frame into the MAP1LC3B locus (encoding LC3) of HEK cells (FIG. 2a). A mutated, nickase version of Cas9 (Cas9n) was used that is incapable of making double-stranded DNA breaks, thereby minimizing the risk of non-homologous end joining and unwanted insertions or deletions (Refs. 29, 35; herein incorporated by reference in their entireties). Two separate single guide RNAs (sgRNAs) were designed that recognize sequences just upstream and downstream of the MAP1LC3B start codon, and a homology directed repair (HDR) vector encoding the Dendra2 open reading frame flanked by 400 bp of homologous sequence surrounding the MAP1LC3B start codon (FIG. 2a). Following expression of the sgRNAs, Cas9n and the HDR in HEK cells, colonies were selected based upon green fluorescence and passaged to homogeneity (FIG. 2b). The insertion site was confirmed by DNA sequencing, PCR, and immunocytochemistry using antibodies that recognize LC3. Providing further validation of the insertion, transfection with siRNA directed against the MAP1LC3B locus elicited a significant reduction in Dendra2-LC3 protein levels as measured by western blotting and native GFP fluorescence (FIG. 2c, d). In untreated cells, Dendra2-LC3 fluorescence appears diffuse, as expected (FIG. 3a). […] Second, autophagy induction in these cells is accompanied not only by the formation of puncta, but also by relative decreases in diffuse Dendra2-LC3 fluorescence, as indicated by the model in FIG. 1.
For these studies the potent mTOR inhibitor torin1 (Ref. 36; herein incorporated by reference in its entirety) was selected as a positive control for autophagy induction, and the vacuolar ATPase inhibitor bafilomycin-A1 (Ref. 37; herein incorporated by reference in its entirety) as a positive control for autophagy inhibition. In each case, DMSO served as a vehicle (negative) control. Dendra2-LC3 was photoconverted immediately prior to drug application, and the fluorescence intensity in the green (GFP) and red (RFP) channels was measured at regular intervals for 15 h.
The Z′ value for the effect of torin1 on the normalized GFP intensity, calculated as a ratio of GFP intensity at 15 h to that at 0 h (T15/T0), was 0.63 when the assay was conducted in a 96-well format in our laboratory, and 0.56 when conducted in a 384-well format at the Center for Chemical Genomics (CCG, FIG. 3e), indicative of a robust screening platform (Ref. 38; herein incorporated by reference in its entirety). […] The false negative rate was near zero, ensuring a highly sensitive assay.
The possibility that cell death and toxicity mimics the reduction in GFP intensity that would otherwise denote autophagy induction was also addressed. To avoid confounding from toxicity, the area occupied by cells in each image is calculated using ImageJ software and used as a proxy for cell number; since all wells received the same number of cells, >25% reductions in the area occupied by cells at the end of the experiment indicates toxicity. The formation of Dendra2-LC3 puncta in each condition is scored simultaneously using the ‘analyze particles’ function in ImageJ. […]

[3] = system: primary rat cortical neurons overexpressing WT-TDP43-GFP; assay: Survival of primary neurons overexpressing TDP43, automated fluorescence microscopy; format: cell-based; details: 25 nM
[4] = system: Tandem reporter (RFP-GFP-LC3) HeLa cells; assay: Tandem reporter (RFP-GFP-LC3) assay, % of RFP puncta that are GFP positive; format: cell-based; details: imaged after 12 hours
Description: FIG. 13A-E. Validation of novel autophagy inhibitors with an independent measure of autophagic flux. (FIG. 13A) Tandem reporter (RFP-GFP-LC3) HeLa cells treated with the indicated compounds and imaged after 12 hours in RFP (middle panels) GFP (bottom panels). […] Concentrations used correspond to the lowest dose resulting in the maximum degree of colocalization between GFP and RFP puncta as calculated in (B). These are: 3 nM Bafilomycin, 1 uM Quinacrine, 50 uM 245536, and 100 uM of 254522, 45808, 234794, and 237373. (Scale bar: 50 μm) (FIG. 13B) The percentage of RFP positive puncta that are also GFP positive in tandem reporter HeLa cells was analyzed using Cell Profiler. First GFP (1a) and RFP (1b) images of the same field of cells are uploaded into Cell Profiler. Using the GFP images, nuclei are identified (2a-green outlines) and a nuclear mask (2b) is generated. […] Cellular boundries are identified (3a-purple outlines) and a cellular mask is created. […] Only puncta within this mask will be evaluated in subsequent steps. […] (FIG. 13D) Tandem reporter HeLa cells were imaged once prior to drug treatment and then treated with the lowest dose that produced the maximum response as calculated in (FIG. 13C) and imaged immediately after. […] Each point is calculated by taking the mean % of (GFP+/RFP+ puncta)/(RFP+) from 8 technical replicates. […]

Row | Compound | Hit class in screen of Enzo Autophagy compound library (9H RFP/0H RFP) [1] | Phase I result, normalized GFP intensity (T15/T0) ([2]; Prestwick and Enzo collections) | Phase II result, Dendra2-LC3 degradation kinetics [1] | further results
1 | CCN(CC)CCCCN1c2ccccc2Oc2ccc(Cl)cc21 [AKT inhibitor X] | enhancer | autophagy inducers |  | 
2 | OCCN1CCN(CCCN2c3ccccc3Sc3ccc(C(F)(F)F)cc32)CC1 [Fluphenazine] |  |  |  | Formation of Dendra2-LC3 (LC3-positive) puncta ([2]; FPZ 0.5 μM, torin1 1 μM): elicits the formation of LC3-positive puncta; GFP intensity of native Dendra2-LC3 ([2]; FPZ 0.5 μM, torin1 1 μM, vs DMSO): reduces the steady-state GFP intensity
3 | Cn1c(=O)n(-c2ccc(C(C)(C)C#N)cc2)c2c3cc(-c4cnc5ccccc5c4)ccc3ncc21 [NVP-BEZ235] | enhancer |  |  | Rank among autophagy inducers in phase I ([2]; Prestwick and Enzo collections): rank among the most potent inducers; Effect on TDP43 toxicity [3]: suppresses toxicity; Hazard ratio, Cox proportional hazards analysis ([3]; p<0.05): 0.89
4 | CCN(CC)CCCC(C)Nc1c2ccc(Cl)cc2nc2ccc(OC)cc12 (stereo not drawn) [Quinacrine] |  |  |  | Lowest dose resulting in the maximum degree of colocalization between GFP and RFP puncta [4]: 1 µM
5 | CO[C@H]1C[C@@H]2CC[C@@H](C)[C@@](O)(O2)C(=O)C(=O)N2CCCC[C@H]2C(=O)O[C@H]([C@H](C)C[C@@H]2CC[C@@H](O)[C@H](OC)C2)CC(=O)[C@H](C)/C=C(\C)[C@@H](O)[C@@H](OC)C(=O)[C@H](C)C[C@H](C)/C=C/C=C/C=C/1C [Rapamycin] | enhancer |  |  | 
6 | O=C(CCCCCN1C(=O)c2cccc3cccc(c23)C1=O)NO [Scriptaid] |  | significant increases in Dendra2-LC3 GFP fluorescence | significantly slowed Dendra2-LC3 degradation | 
7 | NC(=O)N1c2ccccc2C=Cc2ccccc21 [carbamazepine] | failure to markedly affect flux | significant increases in Dendra2-LC3 GFP fluorescence | significantly slowed Dendra2-LC3 degradation | 
8 | C[C@@H]1C[C@@H]([C@H](O)CC2CC(=O)NC(=O)C2)C(=O)[C@@H](C)C1 [cycloheximide] |  | potential autophagy inducers | failed to affect Dendra2-LC3 degradation kinetics | 
9 | OC[C@H]1O[C@H](O[C@H]2O[C@H](CO)[C@@H](O)[C@H](O)[C@H]2O)[C@H](O)[C@@H](O)[C@@H]1O [trehalose] | failure to markedly affect flux |  |  | 
